Measured values from PubChem BioAssay AID248 (DTP/NCI, 2004).
Values joined by “and” are separate entries in the source; they are usually repeats but may differ in a detail not shown here. Equal values may be shown once. Toxic doses and inconclusive results are not listed.

System: L1210 leukemia ip in BDF1 mice, survival T/C
Experiment: NCI In Vivo Anticancer Drug Screen. Data for tumor model L1210 Leukemia (intraperitoneal) in B6D2F1 (BDF1) mice
Conditions: endpoint: mean survival time, higher = longer survival
Outline: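 Antitumor effect is assessed in tumor-bearing animals. Survival in the compound arm is compared with a vehicle-dosed control arm and expressed as their quotient.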

[1] = dose: 100.0 mg/kg/injection, schedule: Q04DX003 (ip), vehicle: saline
[2] = dose: 200.0 mg/kg/injection, schedule: Q04DX003 (ip), vehicle: saline
[3] = dose: 400.0 mg/kg/injection, schedule: Q04DX003 (ip), vehicle: saline
[4] = dose: 100.0 mg/kg/injection, schedule: Q04DX003 (ip), vehicle: saline with Tween-80
[5] = dose: 200.0 mg/kg/injection, schedule: Q04DX003 (ip), vehicle: saline with Tween-80
[6] = dose: 400.0 mg/kg/injection, schedule: Q04DX003 (ip), vehicle: saline with Tween-80
[7] = dose: 75.0 mg/kg/injection, schedule: Q01DX001 (ip), vehicle: saline
[8] = dose: 100.0 mg/kg/injection, schedule: Q04DX002 (ip), vehicle: Klucel (hydroxypropylcellulose) (HPC)
[9] = dose: 200.0 mg/kg/injection, schedule: Q04DX002 (ip), vehicle: Klucel (hydroxypropylcellulose) (HPC)
[10] = dose: 400.0 mg/kg/injection, schedule: Q04DX002 (ip), vehicle: Klucel (hydroxypropylcellulose) (HPC)
[11] = dose: 100.0 mg/kg/injection, schedule: Q01DX009 (ip), vehicle: saline with Tween-80
[12] = dose: 200.0 mg/kg/injection, schedule: Q01DX009 (ip), vehicle: saline with Tween-80
[13] = dose: 100.0 mg/kg/injection, schedule: Q01DX001 (ip), vehicle: saline
[14] = dose: 200.0 mg/kg/injection, schedule: Q01DX001 (ip), vehicle: saline
[15] = dose: 50.0 mg/kg/injection, schedule: Q01DX009 (ip), vehicle: saline with Tween-80
[16] = dose: 400.0 mg/kg/injection, schedule: Q01DX001 (ip), vehicle: saline
[17] = dose: 25.0 mg/kg/injection, schedule: Q01DX009 (ip), vehicle: Klucel (hydroxypropylcellulose) (HPC)
[18] = dose: 25.0 mg/kg/injection, schedule: Q04DX003 (ip), vehicle: saline
[19] = dose: 50.0 mg/kg/injection, schedule: Q01DX009 (ip), vehicle: Klucel (hydroxypropylcellulose) (HPC)
[20] = dose: 100.0 mg/kg/injection, schedule: Q01DX009 (ip), vehicle: Klucel (hydroxypropylcellulose) (HPC)

Cc1cc(C)c(-c2c(C)cc(C)cc2[N+](=O)[O-])c([N+](=O)[O-])c1
T/C [1]: 93 % of control | T/C [2]: 96 % of control | T/C [3]: 86 % of control

CCOP(=S)(OCC)SCc1ccc(C)cc1
T/C [4]: 98 % of control | T/C [5]: 103 % of control | T/C [6]: 110 % of control

NC(CCO)C(=O)O (centres undefined)
T/C (dose: 50.0 mg/kg/injection, schedule: Q04DX002 (ip), vehicle: saline): 96 % of control | T/C (dose: 100.0 mg/kg/injection, schedule: Q04DX002 (ip), vehicle: saline): 96 % of control | T/C (dose: 200.0 mg/kg/injection, schedule: Q04DX002 (ip), vehicle: saline): 100 % of control

CN(C)C=Nc1ccc(Cl)cc1
T/C (dose: 25.0 mg/kg/injection, schedule: Q01DX001 (ip), vehicle: other): 93 % of control | T/C (dose: 50.0 mg/kg/injection, schedule: Q01DX001 (ip), vehicle: other): 101 % of control | T/C (dose: 50.0 mg/kg/injection, schedule: Q01DX001 (ip), vehicle: saline): 100 % of control | T/C (dose: 50.0 mg/kg/injection, schedule: Q04DX003 (ip), vehicle: other): 90 % of control | T/C (dose: 100.0 mg/kg/injection, schedule: Q01DX001 (ip), vehicle: other): 103 % of control and 91 % of control | T/C (dose: 100.0 mg/kg/injection, schedule: Q04DX003 (ip), vehicle: other): 102 % of control | T/C (dose: 200.0 mg/kg/injection, schedule: Q04DX003 (ip), vehicle: other): 101 % of control

O=S(=O)(Cc1ccccc1)C(CCCc1ccccc1)S(=O)(=O)Cc1ccccc1
T/C (dose: 100.0 mg/kg/injection, schedule: Q01DX001 (ip), vehicle: carboxymethylcellulose (CMC)): 97 % of control | T/C (dose: 200.0 mg/kg/injection, schedule: Q01DX001 (ip), vehicle: carboxymethylcellulose (CMC)): 92 % of control | T/C (dose: 400.0 mg/kg/injection, schedule: Q01DX001 (ip), vehicle: carboxymethylcellulose (CMC)): 91 % of control

CCCCCCCC(C)NCCCO (centres undefined)
T/C [7]: 90 % of control

Cc1c2ccccc2c(C)c2c1cc(CO)c1ccccc12
T/C [8]: 97 % of control | T/C [9]: 104 % of control | T/C [10]: 89 % of control

CC[CH2][Pb]([CH2]CC)([CH2]CC)[N]1C(=O)c2ccccc2C1=O
T/C (dose: 3.12 mg/kg/injection, schedule: Q01DX009 (ip), vehicle: saline): 98 % of control | T/C (dose: 3.12 mg/kg/injection, schedule: Q04DX002 (ip), vehicle: saline): 92 % of control | T/C (dose: 6.25 mg/kg/injection, schedule: Q01DX009 (ip), vehicle: saline): 101 % of control | T/C (dose: 6.25 mg/kg/injection, schedule: Q04DX002 (ip), vehicle: saline): 111 % of control | T/C (dose: 12.5 mg/kg/injection, schedule: Q04DX002 (ip), vehicle: saline): 94 % of control and 111 % of control

O=C1C2(c3ccccc3)C(c3ccccc3)=C(c3ccccc3)C1(c1ccccc1)C1CC=CC12 (centres undefined)
T/C [11]: 98 % of control | T/C [4]: 96 % of control | T/C [12]: 100 % of control | T/C [5]: 104 % of control | T/C [6]: 96 % of control

CSc1nccc2c1ncn2C1OC(CO)C(O)C1O (centres undefined)
T/C [13]: 104 % of control | T/C [14]: 95 % of control

CC(C)N(C(=S)SSC(=S)N(C(C)C)C(C)C)C(C)C
T/C [15]: 97 % of control | T/C [11]: 101 % of control | T/C [12]: 97 % of control

O=C(CF)NC1C(O)OC(CO)C(O)C1O (centres undefined)
T/C [13]: 107 % of control | T/C [14]: 112 % of control

O=[N+]([O-])c1cc(CN2CCCCC2)c(O)c2cccnc12
T/C [7]: 101 % of control | T/C (dose: 150.0 mg/kg/injection, schedule: Q01DX001 (ip), vehicle: saline): 106 % of control | T/C (dose: 300.0 mg/kg/injection, schedule: Q01DX001 (ip), vehicle: saline): 101 % of control

Cc1cccc(C(=O)O)n1
T/C (dose: 100.0 mg/kg/injection, schedule: Q01DX009 (ip), vehicle: saline): 103 % of control | T/C [1]: 104 % of control | T/C (dose: 200.0 mg/kg/injection, schedule: Q01DX009 (ip), vehicle: saline): 113 % of control | T/C [2]: 101 % of control | T/C (dose: 400.0 mg/kg/injection, schedule: Q01DX009 (ip), vehicle: saline): 93 % of control | T/C [3]: 95 % of control

CC(=O)OC1CCCCC1C (centres undefined)
T/C [13]: 102 % of control | T/C [14]: 94 % of control | T/C [16]: 91 % of control

CCN(CC)C(C)CN1c2ccccc2Sc2ccccc21 (centres undefined)
T/C [17]: 97 % of control | T/C [18]: 88 % of control | T/C [19]: 94 % of control | T/C [20]: 103 % of control | T/C [1]: 96 % of control | T/C [2]: 93 % of control

Clc1cc2nsnc2c2ccccc12
T/C (dose: 200.0 mg/kg/injection, schedule: Q04DX002 (ip), vehicle: gum acacia): 95 % of control

OC1CC2(Cl)C(Cl)=C(Cl)C1(Cl)C2(Cl)Cl (centres undefined)
T/C (dose: 75.0 mg/kg/injection, schedule: Q01DX001 (ip), vehicle: carboxymethylcellulose (CMC)): 87 % of control | T/C (dose: 150.0 mg/kg/injection, schedule: Q01DX001 (ip), vehicle: carboxymethylcellulose (CMC)): 95 % of control | T/C (dose: 300.0 mg/kg/injection, schedule: Q01DX001 (ip), vehicle: carboxymethylcellulose (CMC)): 93 % of control

CC(C)CC(C)(CC(C)C)C(=O)O
T/C [13]: 100 % of control | T/C [14]: 100 % of control | T/C [16]: 102 % of control

CCN(C(=O)C(F)(F)F)C(C)(C)C(SSSC(c1ccc(Cl)cc1)C(C)(C)N(CC)C(=O)C(F)(F)F)c1ccc(Cl)cc1 (centres undefined)
T/C (dose: 100.0 mg/kg/injection, schedule: Q01DX009 (ip), vehicle: other): 94 % of control

CCCCn1ccnc1C
T/C (dose: 6.25 mg/kg/injection, schedule: Q04DX003 (ip), vehicle: saline): 113 % of control and 90 % of control | T/C (dose: 12.5 mg/kg/injection, schedule: Q04DX003 (ip), vehicle: saline): 93 % of control and 107 % of control | T/C [18]: 113 % of control and 265 % of control and 89 % of control | T/C (dose: 50.0 mg/kg/injection, schedule: Q04DX003 (ip), vehicle: saline): 106 % of control and 289 % of control

O=C1c2cc(-c3ccccc3)c(-c3ccccc3)cc2C(c2ccccc2)(c2ccccc2)C1Br (centres undefined)
T/C [4]: 94 % of control | T/C [5]: 91 % of control | T/C [6]: 93 % of control

COc1ccc2ccccc2c1C1NC(=O)c2ccccc2N1 (centres undefined)
T/C [19]: 97 % of control | T/C [20]: 97 % of control | T/C (dose: 150.0 mg/kg/injection, schedule: Q01DX009 (ip), vehicle: Klucel (hydroxypropylcellulose) (HPC)): 92 % of control

C[N+](C)(C)c1ccc(N=C=S)cc1
T/C (dose: 12.5 mg/kg/injection, schedule: Q01DX009 (ip), vehicle: Klucel (hydroxypropylcellulose) (HPC)): 94 % of control | T/C [17]: 105 % of control | T/C [19]: 103 % of control

COC(=O)C12C3C=CC(O3)C1(C(=O)OC)C1C=CC2O1 (centres undefined)
T/C (dose: 87.5 mg/kg/injection, schedule: Q01DX009 (ip), vehicle: Klucel (hydroxypropylcellulose) (HPC)): 100 % of control | T/C (dose: 175.0 mg/kg/injection, schedule: Q01DX009 (ip), vehicle: Klucel (hydroxypropylcellulose) (HPC)): 97 % of control | T/C (dose: 350.0 mg/kg/injection, schedule: Q01DX009 (ip), vehicle: Klucel (hydroxypropylcellulose) (HPC)): 101 % of control

CCCC(=O)OCC1CC2C=CC1C2 (centres undefined)
T/C (dose: 222.0 mg/kg/injection, schedule: Q01DX Z (ip), vehicle: saline): 100 % of control | T/C (dose: 333.0 mg/kg/injection, schedule: Q01DX Z (ip), vehicle: saline): 102 % of control | T/C (dose: 500.0 mg/kg/injection, schedule: Q01DX Z (ip), vehicle: saline): 112 % of control

CC(=O)NCc1cc2c3c(c1)CCCN3CCC2
T/C [15]: 97 % of control | T/C [11]: 90 % of control | T/C [4]: 90 % of control | T/C [12]: 94 % of control | T/C [5]: 100 % of control

O=C(Nc1ccc(Br)cc1)c1ccc(C(=O)Nc2ccc(Br)cc2)cc1
T/C [13]: 94 % of control | T/C [14]: 100 % of control | T/C [16]: 94 % of control

CC(c1c[nH]c2ccccc12)C(N)C(=O)O (centres undefined)
T/C [1]: 95 % of control and 93 % of control | T/C [2]: 98 % of control and 92 % of control | T/C [3]: 95 % of control and 97 % of control

Cc1ccc(C)c(NCC(=O)NN)c1
T/C [8]: 103 % of control | T/C [9]: 100 % of control | T/C [10]: 100 % of control
